# Numbering of substitutions follows the chain as printed.
# Legend:
# Experiment in all cases: direct fluorescence titration (ex […] nm, em […] nm), nonlinear regression
# Assay type in all cases: binding
# Mus m 1.0102 [1] = biological target: T1, Mus m 1.0102 (Mus musculus, UniProt P11589); settings: 20 nM protein, Tris-HCl 10 mM pH 7.2, 25 °C; hydrophobic pocket
# T1 construct: gene Mup2; recombinant lipocalin allergen
# T1 sequence (P11589 19-180): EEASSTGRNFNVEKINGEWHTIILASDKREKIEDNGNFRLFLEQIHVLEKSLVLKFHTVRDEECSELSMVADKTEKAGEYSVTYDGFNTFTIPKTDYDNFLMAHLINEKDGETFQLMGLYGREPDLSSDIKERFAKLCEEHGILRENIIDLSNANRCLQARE
# Mus m 1.0102 [2] = biological target: T2, Mus m 1.0102 (Mus musculus, UniProt P11589, C175A)
# T2 construct: gene Mup2; recombinant lipocalin allergen
# T2 sequence (P11589 19-180 C175A): T1 sequence (P11589 19-180) with C157A
# Mus m 1.0102 [3] = biological target: T3, Mus m 1.0102 (Mus musculus, UniProt P11589, C156A/C175A); settings: 20 nM protein, Tris-HCl 10 mM pH 7.2, 25 °C; hydrophobic pocket
# T3 construct: gene Mup2; recombinant lipocalin allergen
# T3 sequence (P11589 19-180 C156A/C175A): T1 sequence (P11589 19-180) with C138A, C157A
# Mus m 1.0102 [4] = biological target: T4, Mus m 1.0102 (Mus musculus, UniProt P11589, C156A); settings: 20 nM protein, Tris-HCl 10 mM pH 7.2, 25 °C; hydrophobic pocket
# T4 construct: gene Mup2; recombinant lipocalin allergen
# T4 sequence (P11589 19-180 C156A): T1 sequence (P11589 19-180) with C138A
smiles,measurement,setting,value
c1ccc(Nc2cccc3ccccc23)cc1 [N-Phenyl-1-naphthylamine],Kd,Mus m 1.0102 [1],25 ± 1.5 nM
same,Kd,Mus m 1.0102 [2],85.5 ± 13.7 nM
same,Kd,Mus m 1.0102 [3],45.2 ± 4 nM
same,Kd,Mus m 1.0102 [4],33.8 ± 6.4 nM
